US11370766B2, “Sulfonyl amidine as indoleamine-2,3-dioxygenase inhibitor, and preparation method therefor and use thereof” (SHANGHAI LONGWOOD BIOPHARMACEUTICALS CO., LTD., priority 2016, dated 2022)
Read-outs that look alike come from different tables or passages of the source. Each block holds one compound with its values, some of them ahead of it.

Tests used:
IDO1 = target: T1, IDO1 (Homo sapiens, UniProt P14902); experiment: IDO1 enzyme activity test (NFK Green); type: biochemical; conditions: 10 nM IDO1, 100 uM L-tryptophan, NFK green fluorescence; read-out: IDO IC50
T1 construct: purchased NTRC NTRC-hTDO-1K
Description: 1. IDO1 Enzyme Activity Test Method (NFK Green)
Content of research: the inhibitory effect of the compound on the activity of IDO1 enzyme was examined.
IDO assay kit (NTRC, Cat. No. NTRC-hTDO-1K), DMSO (Sigma, Cat. No. D2650), 384-well plate_compound dilution plate (Greiner, Cat. No. 781280), 384-well plate_test plate (Perkin Elmer, Cat. No. 6007299)
10 nM IDO1 was incubated with compound or DMSO at 23° C. for 30 minutes, and L-type tryptophan was added at a final concentration of 100 uM and reacted for 1.5 hours. NFK green was added and incubated at 37° C. for 4 hours, and fluorescence signal data (excitation band, 400/25; emission band, 510/20) was corrected with Envision. Data analysis and mapping was conducted by XLfit5 software.
The test compounds and the reference compound LW3018 were finally tested at concentrations ranging from […] to 0.51 nM, 3-fold gradient dilution, 10 concentrations, and two replicate wells.

IDO1 in Hela cells = target: T2, IDO1 in Hela cells (Homo sapiens, UniProt P14902); experiment: IDO cytology test (LC-MS), kynurenine in IFN-gamma-stimulated Hela cells; type: cell-based; conditions: interferon gamma 100 ng/mL, 20 h, kynurenine by LC/MS
T2 construct: endogenous in cells; host or cells: Hela cells, IFN-gamma stimulated
Excerpt: 2. IDO Cytology Test Method (LC-MS)
Content of research: the inhibitory effect of the compound on the activity of IDO1 in Hela cells was examined.
RPMI 1640 (phenol red free) medium (Invitrogen Cat. No. 11835030), fetal bovine serum (Invitrogen Cat. No. 10099141), penicillin and streptomycin (Invitrogen Gibco Cat. No. 15140-122), recombinant human interference γ (R&D system, Cat. No. 285-IF-100). 5% (w/v) trichloroacetic acid (Alfa Aesar Cat. No. A11156), DMSO (Sigma, Cat. No. D2650), 96-well plate_compound dilution plate (Axygen, Cat. No. WIPP02280), 96-well plate_test plate (Greiner, Cat. No. 655090)
The test compounds and the reference compound LW3018 were finally tested at concentrations ranging from […] to 0.76 nM, 3-fold gradient dilution, 9 concentrations, and two replicate wells.
Hela cells were plated in 96-well cell culture plates at a number of 40,000 cells per well, and incubated with RPMI 1640 containing 10% fetal bovine serum for 5-6 hours. The diluted test compound and recombinant human interferon gammaa (final concentration at 100 ng/mL) were added to activate IDO1 expression. The cells were cultured in a 37° C. cell incubator which was enriched with 5% carbon dioxide for 20 hours, and the reaction was stopped with 5% trichloroacetic acid and incubated for 30 minutes at 50° C. After the cell culture solution was precipitated, the supernatant was sent to LC/MS to detect the content of kynurenine. Data analysis and mapping was conducted by XLfit5 software.

[1] = system: mouse colorectal cancer CT26 transplanted tumor; experiment: In vivo efficacy test of mouse colorectal cancer CT26 transplanted tumor
Description: Example 5 In Vivo Efficacy Test of Mouse Colorectal Cancer CT26 Transplanted Tumor
Under sterile conditions, CT26 cells in the proliferative phase were harvested, cell concentration was adjusted after digestion, and inoculated into the right hind limb of the mouse. Each mouse was inoculated with 1×10^5 CT26 cells in an inoculation volume of 0.1 mL. Four days after the inoculation, the average tumor volume was close to 20-30 mm^3, and the mouse was administered in a randomized group. The day of administration was recorded as DO, and the negative control was given same amount of vehicle. Co-administration of LW 105-1-1 with Anti-CTLA4 antibody was also tested in this experiment. After the administration was started, the tumor long diameter and short diameter were measured 3 times per week.

[2] = Pharmacokinetics of LW105-1-1 in mice; type: in vivo; conditions: plasma, male C57BL/6 mice; for AUC(0-t): male, C57BL/6, mouse; for MRT last: read-out: MRT0-last; for bioavailability: after dose standardization, read-out: F% (absolute bioavailability); for Cmax: read-out: Cmax (head printed as image)
Description: 18 male C57BL/6 mice were intragastrically or intravenously administered with compound LW105-1-1 (Table 3).
The preparation containing 5% DMA and 20% HPbCD aqueous solution as a solvent was administered by intravenous injection, and a preparation containing a solution comprising 5% DMA, 20% HPbCD and 0.1% CREMOPHOR EL as a solution was intragastrically administered. The animal strain was male C57BL/6 mice. Prior to the animal experiment, all animals were fasted and fed 4 hours after dosing; all animals were given free access to water.
Intravenous administration group: before administration, 0.083, 0.25, 0.5, 1, 2, 4, 8 and 24 hours after.
Oral administration group: before administration, 0.25, 0.5, 1, 2, 4, 8 and 24 hours after
Whole blood samples (0.03 mL) were collected from the saphenous vein at the indicated time (or other suitable blood collection sites), and all blood samples were added to a plastic centrifuge tube pre-filled with K2-EDTA anticoagulant and labeled. After the blood sample was collected, centrifuged for 10 minutes under 2 to 8° C. at 3000 g, and the supernatant plasma was aspirated, and quickly placed in dry ice, and kept at −20° C. or lower for LC-MS/MS analysis.
The concentrations of all samples were analyzed using LC-MS/MS. Plasma mean concentrations were processed using a non-compartmental model of WinNonlin™ Version 6.3 (Pharsight, Mountain View, Calif.) pharmacokinetic software, and pharmacokinetic parameters were calculated by linear logarithmic trapezoidal method.

T1 sequence (P14902 whole entry): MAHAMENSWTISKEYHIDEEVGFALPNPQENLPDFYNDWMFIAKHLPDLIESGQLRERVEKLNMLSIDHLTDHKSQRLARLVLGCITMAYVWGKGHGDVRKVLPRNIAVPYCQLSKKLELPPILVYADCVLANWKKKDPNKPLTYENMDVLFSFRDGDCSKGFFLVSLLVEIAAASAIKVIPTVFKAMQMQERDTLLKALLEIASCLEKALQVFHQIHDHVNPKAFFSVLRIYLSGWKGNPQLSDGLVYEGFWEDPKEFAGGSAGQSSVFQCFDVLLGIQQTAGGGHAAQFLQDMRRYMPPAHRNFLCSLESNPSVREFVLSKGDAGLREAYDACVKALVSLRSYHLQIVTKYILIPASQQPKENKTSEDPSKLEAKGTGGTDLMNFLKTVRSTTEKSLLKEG
T2 sequence (P14902 whole entry): as above

IC50 (IDO1): 0.0265 µM | IC50 (IDO1 in Hela cells): 0.0111 µM
SMILES: CS(=N)(=O)NCCCNc1nonc1C(=NO)Nc1ccc(F)c(Br)c1 (stereo not drawn) [LW105-1-11]

IC50 (IDO1): 0.0294 µM | IC50 (IDO1 in Hela cells): 0.0072 µM
SMILES: N=S(=O)(NCCNc1nonc1C(=NO)Nc1ccc(F)c(Br)c1)C1CC1 (stereo not drawn) [LW105-1-4]

IC50 (IDO1): 0.0252 µM | IC50 (IDO1 in Hela cells): 0.0156 µM
SMILES: CCS(=N)(=O)NCCNc1nonc1C(=NO)Nc1ccc(F)c(Br)c1 (stereo not drawn) [LW105-1-2]

AUC(0-t) ([2]; iv, 3 mg/kg, intravenous 3 mg/kg): 1430 ng·h/mL | AUC(0-t) ([2]; po, 30 mg/kg, oral gavage 30 mg/kg): 10100 ng·h/mL | AUC(0-t) ([2]; po, 100 mg/kg, oral gavage 100 mg/kg): 39400 ng·h/mL | half-life ([2]; mouse, 3 mg/kg, heading: T1/2, intravenous 3 mg/kg): 0.688 h | AUC(0-inf) ([2]; mouse, intravenous 3 mg/kg): 1450 ng·h/mL | C0 ([2]; mouse, intravenous 3 mg/kg): 2560 ng/mL | clearance ([2]; mouse, intravenous 3 mg/kg): 34.5 mL/min/kg | MRT last ([2]; mouse, intravenous 3 mg/kg): 0.904 h | Vd ([2]; mouse, intravenous 3 mg/kg, read-out: steady-state volume (Vdss)): 1.87 L/kg | AUC(0-inf) ([2]; mouse, oral gavage 30 mg/kg): 10100 ng·h/mL | Tmax ([2]; mouse, oral gavage 30 mg/kg): 0.5 h | bioavailability ([2]; mouse, oral gavage 30 mg/kg): 69.9% | Cmax ([2]; mouse, oral gavage 30 mg/kg): 4810 ng/mL | MRT last ([2]; mouse, oral gavage 30 mg/kg): 3.11 h | half-life ([2]; mouse, oral gavage 30 mg/kg, read-out: T1/2 (converted)): 2.7 h | AUC(0-inf) ([2]; mouse, oral gavage 100 mg/kg): 39300 ng·h/mL | Tmax ([2]; mouse, oral gavage 100 mg/kg): 0.25 h | bioavailability ([2]; mouse, oral gavage 100 mg/kg): 81.4% | Cmax ([2]; mouse, oral gavage 100 mg/kg): 20700 ng/mL | MRT last ([2]; mouse, oral gavage 100 mg/kg): 1.99 h | half-life ([2]; mouse, oral gavage 100 mg/kg, read-out: T1/2 (converted)): 2.11 h | IC50 (IDO1): 0.0223 µM | IC50 (IDO1 in Hela cells): 0.0115 µM
SMILES: CS(=N)(=O)NCCNc1nonc1C(=NO)Nc1ccc(F)c(Br)c1 (racemic) [LW105-1-1]
tumor inhibition rate ([1]; mouse CT26 model, 300 mg/kg oral twice a day): 40.6% | anti-tumor growth effect ([1]; mouse CT26 model, 30, 100, 300 mg/kg oral): dose-dependent anti-tumor growth effect

IC50 (IDO1): 0.0194 µM | IC50 (IDO1 in Hela cells): 0.0127 µM
SMILES: CC(C)S(=N)(=O)NCCNc1nonc1C(=NO)Nc1ccc(F)c(Br)c1 (stereo not drawn) [LW105-1-3]
